Source: ChEMBL document CHEMBL1201862, “PubChem BioAssay data set” (2004)
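Following 48 hours of exposure in 96-well plates, responses at five concentrations were used to interpolate endpoints linearly. GI50 is the concentration that inhibits growth by half.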 Active and inactive are the calls of the source. Rule as the data show it: active = GI50 up to about 1.1 µM and inactive = higher.

How the values were obtained:
Test in all cases: NCI anticancer screen, dose series, 48 h
DU-145 = tested on: DU-145
SF-539 = tested on: SF-539
HOP-62 = tested on: HOP-62
SK-OV-3 = tested on: SK-OV-3
U-251 = tested on: U-251
NCI-H522 = tested on: NCI-H522
SK-MEL-5 = tested on: SK-MEL-5
K562 = tested on: K562
NCI-H460 = tested on: NCI-H460
SR = tested on: SR
Malme-3M = tested on: Malme-3M
OVCAR-5 = tested on: OVCAR-5
MDA-N = tested on: MDA-N
UACC-62 = tested on: UACC-62
Hs-578T = tested on: Hs-578T
OVCAR-4 = tested on: OVCAR-4
RPMI-8226 = tested on: RPMI-8226
TK-10 = tested on: TK-10
LOX IMVI = tested on: LOX IMVI
CCRF-CEM = tested on: CCRF-CEM

| Structure (SMILES) | GI50 (DU-145) | GI50 (SF-539) | GI50 (HOP-62) | GI50 (SK-OV-3) | GI50 (U-251) | GI50 (NCI-H522) | GI50 (SK-MEL-5) | GI50 (K562) | GI50 (NCI-H460) | GI50 (SR) | GI50 (Malme-3M) | GI50 (OVCAR-5) | GI50 (MDA-N) | GI50 (UACC-62) | GI50 (Hs-578T) | GI50 (OVCAR-4) | GI50 (RPMI-8226) | GI50 (TK-10) | GI50 (LOX IMVI) | GI50 (CCRF-CEM) |
| --- | --- | --- | --- | --- | --- | --- | --- | --- | --- | --- | --- | --- | --- | --- | --- | --- | --- | --- | --- | --- |
| O=C(/C=C/C(=O)N1CCCC1)N1CCCC1 | > 100 µM (inactive) | > 100 µM (inactive) | > 100 µM (inactive) | > 100 µM (inactive) | > 100 µM (inactive) | > 100 µM (inactive) | > 100 µM (inactive) | > 100 µM (inactive) | > 100 µM (inactive) | > 100 µM (inactive) | > 100 µM (inactive) | > 100 µM (inactive) | > 100 µM (inactive) | > 100 µM (inactive) | > 100 µM (inactive) | > 100 µM (inactive) | > 100 µM (inactive) | > 100 µM (inactive) | > 100 µM (inactive) | > 100 µM (inactive) |
| Cc1cc(C)n(CC(Cn2nc(C)cc2C)=C(/C(Cl)=C(/Cl)Nc2ccc([N+](=O)[O-])cc2)[N+](=O)[O-])n1 | 4.03 µM (inactive) | 3.52 µM (inactive) | 4.46 µM (inactive) | 3.37 µM (inactive) | 3.53 µM (inactive) | 2.09 µM (inactive) | 2.29 µM (inactive) | 1.65 µM (inactive) | 3.33 µM (inactive) | 2.48 µM (inactive) | 3.61 µM (inactive) | 7.78 µM (inactive) | 3.74 µM (inactive) | 3.9 µM (inactive) | 5.31 µM (inactive) | 1.02 µM (active) | 1.93 µM (inactive) | 3.78 µM (inactive) | 2.3 µM (inactive) | 0.558 µM (active) |
| Cc1cc2nc(O)c(C(C)C(=O)c3ccc(Cl)cc3)nc2cc1C (configuration not stated) | 53.1 µM (inactive) | 23.4 µM (inactive) | 49.8 µM (inactive) | > 100 µM (inactive) | 36.2 µM (inactive) | 31.6 µM (inactive) | 38.1 µM (inactive) | 40.6 µM (inactive) | 29.9 µM (inactive) | 22.2 µM (inactive) | 71.6 µM (inactive) | 56.1 µM (inactive) | 17.8 µM (inactive) | 46.9 µM (inactive) | 54.6 µM (inactive) | 31.6 µM (inactive) | 43.2 µM (inactive) | 27 µM (inactive) | 35.6 µM (inactive) | 26.7 µM (inactive) |
| CN(C)CCS/C(=N\c1ccccc1)N1C=COC=C1 | 75.9 µM (inactive) | 29.2 µM (inactive) | > 100 µM (inactive) | > 100 µM (inactive) | 48 µM (inactive) | 17.4 µM (inactive) | 19.5 µM (inactive) | > 67.8 µM (inactive) | > 68.5 µM (inactive) | 68.9 µM (inactive) | 33.7 µM (inactive) | > 66.5 µM (inactive) | 24 µM (inactive) | 16 µM (inactive) | 89.1 µM (inactive) | > 44.6 µM (inactive) | 61.7 µM (inactive) | 47.5 µM (inactive) | 16 µM (inactive) | > 74.6 µM (inactive) |
| CN1CCN(c2ccc(-n3cc(C(=O)O)c(=O)c4cc(F)c(N5CCN(C)CC5)cc43)nc2)CC1 | > 100 µM (inactive) | > 100 µM (inactive) | > 100 µM (inactive) | > 100 µM (inactive) | > 100 µM (inactive) | 78.5 µM (inactive) | – | 62.8 µM (inactive) | > 100 µM (inactive) | > 100 µM (inactive) | 95.5 µM (inactive) | > 100 µM (inactive) | > 100 µM (inactive) | > 100 µM (inactive) | > 100 µM (inactive) | > 100 µM (inactive) | > 100 µM (inactive) | > 100 µM (inactive) | > 100 µM (inactive) | > 100 µM (inactive) |
| CC1=CC(=O)N(n2c(Cc3ccccc3)n[nH]c2=O)C1=O | > 100 µM (inactive) | > 100 µM (inactive) | – | > 100 µM (inactive) | > 100 µM (inactive) | > 100 µM (inactive) | > 100 µM (inactive) | 71.9 µM (inactive) | > 100 µM (inactive) | 72.6 µM (inactive) | > 100 µM (inactive) | > 100 µM (inactive) | > 100 µM (inactive) | > 100 µM (inactive) | > 100 µM (inactive) | > 100 µM (inactive) | 52 µM (inactive) | > 100 µM (inactive) | 83.4 µM (inactive) | 23.3 µM (inactive) |
| O=C1/C(=C/c2cccc([N+](=O)[O-])c2)Cc2ccccc21 | > 100 µM (inactive) | > 100 µM (inactive) | > 100 µM (inactive) | > 100 µM (inactive) | 60.1 µM (inactive) | 59.3 µM (inactive) | – | > 100 µM (inactive) | > 100 µM (inactive) | 36.8 µM (inactive) | > 100 µM (inactive) | > 100 µM (inactive) | > 100 µM (inactive) | > 100 µM (inactive) | > 100 µM (inactive) | 75 µM (inactive) | > 100 µM (inactive) | > 100 µM (inactive) | > 100 µM (inactive) | > 100 µM (inactive) |
